Test results: US9358244B2, “Solid dosage forms of oleyl phosphocholine” (Oblita Therapeutics BVBA, priority 2010, dated 2016)
In brackets after ≈: the same amount, converted by molar mass.

Key:
[1] = test system: Leishmania infantum (MHOM/MA (BE)/67) amastigotes; test: Curative efficacy against Leishmania infantum in the hamster model, oral 5 days; assay type: in vivo; details: for Bone marrow % red / Liver % red / Spleen % red: reduction vs VIC; for Bone marrow Mean ± SE of amastigotes per nucleus / Liver Mean ± SE of LDU / Spleen Mean ± SE of LDU: 10 days after last treatment
Description: Golden hamsters (female, 75 g) were allocated randomly to 7 groups with 8 animals per group. • G1: vehicle infected control (VIC): 200 μl blank vehicle orally 5 days • G2: MIL-PBS: 5×40 mg/kg (=98.1 μmol/kg) orally for 5 days • G3: MIL-PBS: 5×20 mg/kg (=49.1 μmol/kg) orally for 5 days • G4: OlPC-PBS: 5×42.5 mg/kg (=98.1 μmol/kg) orally for 5 days • G5: OlPC-PBS: 5×21.2 mg/kg (=49.1 μmol/kg) orally for 5 days • G6: OlPC-liposomes: 5×2.4 ml/kg (=98.1 μmol/kg) orally for 5 days • G7: OlPC-liposomes: 5×1.2 ml/kg (=49.1 μmol/kg) orally for 5 days Drinking water and food were available ad libitum throughout the experiment. […] Artificial Infection
Leishmania infantum (MHOM/MA (BE)/67) amastigotes were obtained from the spleen of heavily infected donor hamsters. The total parasite burden was determined on Giemsa-stained smears. Amastigotes in the spleen homogenate were concentrated using two centrifugation steps (low speed (300 rpm) with collection of the supernatant−high speed (4200 rpm) with collection of the pellet). The parasite burdens in the spleen were estimated using the Stauber technique and the amastigote suspension was diluted to prepare the infection inocula for intracardial infection containing 2×10^7 amastigotes/100 μl. At 21 days post infection (=start of treatment), the levels infection were checked in 4 randomly chosen animals by making a smear from a liver biopsy for determination of the parasite burden (cfr. infra).
• Miltefosine was formulated at 20 mg/ml and 10 mg/ml in PBS and stored at room temperature in the dark. A clear transparent solution was obtained. • OlPC-PBS was formulated at 21.25 mg/ml and 10.63 mg/ml in PBS and stored at room temperature in the dark. A clear transparent solution was obtained. • OlPC-liposome formulation was prepared at 18 mg/ml (dosed at 2.4 ml/kg=120 μl/50 gram). The formulation was diluted 2 times in PBS to obtain a OlPC-formulation of 9 mg/ml (dosed at 1.2 ml/kg=[…])) Treatment
Oral treatment started 21 days after infection (dpi) and was continued for 5 consecutive days. Dosing volume was 100 μl per 50 gram BW (bodyweight).
Parasite Burden: amastigote burdens in the different target organs (liver, spleen, bone-marrow) were determined 10 days after the last treatment (i.e. day 35 of the experiment). The organs of individual animals were weighed (except bone-marrow); impression smears were fixed in methanol and stained with Giemsa for microscopic evaluation of the number of amastigotes per cell by counting a minimum of 500 nuclei1. The results are expressed as Leishman Donovan Units (LDU)=mean number of amastigotes per nucleus×mg organ weight. Percentage reduction as compared to vehicle-treated infected control animals (VIC) is used as a measure for drug activity. Particularly for spleen and bone-marrow, the viability of possible residual burdens was assessed using the promastigote transformation assay.

[2] = Tolerance in treated naturally infected dogs; assay type: in vivo; details: 6 dogs, 4 mg/kg/day orally 14 days
Description: (§1) The dose of 4 mg/kg/day oleylphosphocholine was used to treat orally during 14 days a cohort of 6 dogs from a shelter naturally infected with L. infantum and classified as clinically sick. The dogs were assessed at the clinical (physical examination and clinic-pathological abnormalities) and parasitological levels at the beginning of the treatment (day 0) and on day 15, 30 and 90.

[3] = Dynamic vapor sorption, OlPC hygroscopicity; assay type: physicochemical; details: 25° C.
Description: Active pharmaceutical ingredients (API) frequently show a propensity to interact with water molecules, leading to absorption of moisture in their bulk structure or adsorption on their surfaces. Such behaviour can critically affect many pharmaceutical properties such as purity, solubility and chemical stability, density, surface area, powder flow, compact ability and crystal form. […] Dynamic vapor sorption (DVS) analyzes determine hygroscopicity profiles using a very small sample (≈15 mg), and provide both qualitative and quantitative information on water uptake.
Water sorption/desorption isotherm of OlPC was determined gravimetrically at 25° C. (SD, 0.1° C.) using a DVS Advantage 1 with a Cahn D200 microbalance (Surface Measurement Systems, London, UK). Between 10 and 20 mg was weighed in the sample cup of the instrument, subjected to a drying step in order to bring the sample to a constant weight and subsequently exposed to increasing relative humidity (RH) (using 10% increments up to 90%). Following the sorption phase, the sample was exposed to a decreasing RH (in steps of 10% until 0% RH). Each step continued until equilibrium was reached (i.e. when the change in mass smaller than 0.002% per minute during at least 10 min) or until 6 h had passed. The mass change was recorded every minute with a resolution of ±0.1 μg.

[4] = Thermogravimetric analysis (TGA) of OlPC; assay type: physicochemical; details: with 1% of mass loss, heating rate 10° C./min
Description: Thermogravimetric Analysis (TGA) measures weight changes in a material as a function of temperature (or time) under a controlled atmosphere. Its principal use includes measurement of a material's thermal stability and composition. The TGA analysis was performed using a HR TGA 2950 (TA Instruments, Leatherhead, UK). Samples (±15 mg) were equilibrated at 50° C. and then heated to 500° C. at a heating rate of 10° C./min and the percentage of weight loss was recorded. The OlPC compound show thermal degradation at 159.27° C. with 1% of mass loss.

Water solubility of OlPC = assay type: physicochemical
Description: The wet granulation process for OlPC solid dosage formulation requires that OlPC is solubilised in water. OlPC as a water solubility of 0.2 g/ml, which implies that for each tablet with 50 mg of OlPC at least 250 μl of water per tablet has to be incorporated in the dry powder mixture.

[5] = Compatibility of OlPC with binder in solution; assay type: physicochemical
Text: The tablets produced presented high levels of friability and high disintegration time. It was observed that the presence of polyvynilpyrrolidone in solution with OlPC induces the formation of an unknown precipitated which indicates the presence of an incompatibility between the two compounds.
Hydroxypropylmethylcellulose was then selected to replace polyvynilpyrrolidone as a binder in the subsequent formulation assays.

[6] = test system: Leishmania infantum (MHOM/MA (BE)/67) amastigotes; test: Follow up experiment: single versus multiple oral administrations in L. infantum infected hamsters; assay type: in vivo; details: hamster, total doses 25, 50 and 100 mg/kg oral, liver, spleen, bone marrow
Description: (§2) In a follow up experiment, the same experimental protocol was used to compare the efficacy of oral oleyl phosphocholine (OlPC) at total doses of 25, 50 and 100 mg/kg when given as single or multiple oral administrations (5×5, 10 and 20 mg/kg, respectively).
(§3) Female hamsters (n=60) were intracardially infected with 2×10^7 Leishmania infantum (MHOM/MA (BE)/67) amastigotes on day 0. Treatment started at day+21 post infection for 5 consecutive days once daily with a total dose of […] given as single or multiple oral administrations. Amastigote burdens in the different target organs (liver, spleen, bone-marrow) were determined 10 days after the last treatment (day+35). The organs of individual animals were weighed (except bone-marrow); impression smears were fixed in methanol and stained with Giemsa for microscopic evaluation of the number of amastigotes per cell by counting a minimum of 500 nuclei. The results (FIG. 4) are expressed as Leishman Donovan Units (LDU)=mean number of amastigotes per nucleus×mg organ weight.

L. infantum = test: Treatment of dogs naturally infected with L. infantum, clinical score; assay type: in vivo; details: 4 mg/kg/day orally 14 days
Description: as §1

[7] = Tolerability in hamsters, follow up experiment; assay type: in vivo; details: hamster, oral, single administrations as high as 100 mg/kg
Description: as §2, §3

[8] = 49.1 μmol/kg (20 mg/kg) orally for 5 days
[9] = 98.1 μmol/kg (40 mg/kg) orally for 5 days

CCCCCCCCCCCCCCCCOP(=O)([O-])OCC[N+](C)(C)C [Miltefosine]
Bone marrow % red [1, 8]: 39% | Liver % red [1, 8]: 0% | Spleen % red [1, 8]: 61% | Liver % red ([1]; 49.1 μmol/kg (20 mg/kg) orally for 5 days, listed as MIL): no reduction | Bone marrow Mean ± SE of amastigotes per nucleus ([1]; 49.1 μmol/kg orally for 5 days): 1.0 ± 0.34 amastigotes per nucleus | Liver Mean ± SE of LDU ([1]; 49.1 μmol/kg orally for 5 days): 9017 ± 1489 LDU | Spleen Mean ± SE of LDU ([1]; 49.1 μmol/kg orally for 5 days): 188 ± 44 LDU | Bone marrow % red [1, 9]: 95% | Liver % red [1, 9]: 65% | Spleen % red [1, 9]: 99.2% | Spleen % red ([1]; 98.1 μmol/kg (40 mg/kg) orally for 5 days, listed as MIL): 99% | Bone marrow Mean ± SE of amastigotes per nucleus ([1]; 98.1 μmol/kg orally for 5 days): 0.1 ± 0.014 amastigotes per nucleus | Liver Mean ± SE of LDU ([1]; 98.1 μmol/kg orally for 5 days): 2764 ± 847 LDU | Spleen Mean ± SE of LDU ([1]; 98.1 μmol/kg orally for 5 days): 3.7 ± 1.67 LDU

CCCCCCCC/C=C\CCCCCCCCOP(=O)([O-])OCC[N+](C)(C)C [OlPC, oleyl phosphocholine]
tolerance, side effects [2]: two of the six dogs treated experienced diarrhea during the first week post-treatment, and a third one had diarrhea and 1 episode of vomiting | water absorbed ([3]; exposed to 90% RH): 41.67% | hygroscopicity ([3]; water sorption and desorption profiles): very hygroscopic | thermal degradation temperature [4]: 159.27 °C | water solubility (Water solubility of OlPC): 200 mg/mL (≈ 461 mM) | compatibility with hydroxypropylmethylcellulose [5]: no such incompatibility was observed | compatibility with polyvinylpyrrolidone in solution ([5]; unknown precipitate formed): incompatibility | overall parasite suppression levels, single versus multiple administrations [6]: similar | average clinical score (CS) (L. infantum; day 15 (day 0: 19, range 14-31)): 12 (range 7-16) | average clinical score (CS) (L. infantum; day 30 (day 0: 19, range 14-31)): 5 (range 1-10) | average clinical score (CS) (L. infantum; day 90 (range 0-5; day 0: 19)): 2 | tolerability / signs of toxicity [7]: well tolerated
